According to patent US12501900B2, “Heterocyclyl pyridazine as fungicidal compounds” (Bayer Aktiengesellschaft, priority 2018, dated 2025):

Assays:
Alternaria alternata = Alternaria alternata in vitro cell test; assay type: cell-based; conditions: 120 h, 20 ppm of active ingredient, liquid culture, 5 days incubation, read-out: efficacy (inhibition of fungal growth)
Septoria tritici [1] = test: In vivo preventive test on Septoria tritici (leaf spot on wheat); conditions: Zymoseptoria tritici, in Triticum aestivum; 500 ppm of active ingredient; preventive spray on wheat; evaluated 19 days after inoculation; read-out: efficacy
Protocol: Example: In Vivo Preventive Test on Septoria tritici (Leaf Spot on Wheat)
• Solvent: 5% by volume of Dimethyl sulfoxide • 10% by volume of Acetone • Emulsifier: 1 μl of Tween® 80 per mg of active ingredient
The active ingredients were made soluble and homogenized in a mixture of Dimethyl sulfoxide/Acetone//Tween®80 and then diluted in water to the desired concentration.
The young plants of wheat were treated by spraying the active ingredient prepared as described above. Control plants were treated only with an aqueous solution of Acetone/Dimethyl sulfoxide/Tween®80.
After 24 hours, the plants were contaminated by spraying the leaves with an aqueous suspension of Septoria tritici spores. The contaminated wheat plants were incubated for 72 hours at 17° C. and at 100% relative humidity and then for 15 days at 20° C. and at 90% relative humidity.
The test was evaluated 19 days after the inoculation. 0% means an efficacy which corresponds to that of the control plants while an efficacy of 100% means that no disease was observed.

Sphaerotheca fuliginea = test: In vivo preventive test on Sphaerotheca fuliginea (powdery mildew on cucurbits); conditions: Podosphaera fuliginea, 192 h; 500 ppm of active ingredient; preventive spray on gherkin; evaluated 8 days after inoculation; read-out: efficacy
Botrytis cinerea = test: In vivo preventive test on Botrytis cinerea (grey mould); conditions: 500 ppm of active ingredient, preventive spray on gherkin or cabbage, evaluated 4 to 5 days after inoculation, read-out: efficacy
Septoria tritici [2] = test: Septoria tritici in vitro cell test; assay type: cell-based; conditions: Zymoseptoria tritici, 168 h; 20 ppm of active ingredient; liquid culture, 7 days incubation; read-out: efficacy (inhibition of fungal growth)
Protocol: Example: Septoria tritici In Vitro Cell Test • Solvent: DMSO • Culture medium: 14.6 g anhydrous D-glucose (VWR), 7.1 g Bacteriological Peptone (Oxoid), • 1.4 g granulated Yeast Extract (Merck), QSP 1 liter • Inoculum: spore suspension Fungicides were solubilized in DMSO and the solution used to prepare the required range of concentrations. The final concentration of DMSO used in the assay was ≤1%. A spore suspension of Septoria tritici was prepared and diluted to the desired spore density. Fungicides were evaluated for their ability to inhibit spore germination and mycelium growth in liquid culture assay. The compounds were added in the desired concentration to the culture medium with spores. After 7 days incubation, fungi-toxicity of compounds was determined by spectrometric measurement of mycelium growth. Inhibition of fungal growth was determined by comparing the absorbance values in wells containing the fungicides with the absorbance in control wells without fungicides.

Pyrenophora teres = test: In vivo preventive test on Pyrenophora teres (net blotch on barley); conditions: 240 h, 500 ppm of active ingredient, preventive spray on barley, evaluated 10 days after inoculation, read-out: efficacy
[3] = test system: Colletotrichum lindemuthianum; test: In vivo preventive test on Colletotrichum lindemuthianum (leaf spot on bean); conditions: 168 h, 500 ppm of active ingredient, preventive spray on bean, evaluated 7 days after inoculation, read-out: efficacy

COc1cccc(Oc2nnc(Cl)cc2C2=NOCC(Cc3ccc(C)cc3C)N2)c1F (racemic) [I-005, rac-3-[6-chloro-3-(2-fluoro-3-methoxy-phenoxy)pyridazin-4-yl]-5-[(2,4-dimethylphenyl)methyl]-5,6-dihydro-4H-1,2,4-oxadiazine]
inhibition at 20 ppm (Alternaria alternata): 90 to 100% | pest or weed control at 500 ppm (Septoria tritici [1]): 90 to 100% | pest or weed control at 500 ppm (Sphaerotheca fuliginea): 90 to 100% | pest or weed control at 500 ppm (Botrytis cinerea): 90 to 100% | inhibition at 20 ppm (Septoria tritici [2]): 70 to 79% | pest or weed control at 500 ppm (Pyrenophora teres): 90 to 100% | pest or weed control at 500 ppm [3]: 90 to 100%

C=C(OCC)c1cc(C2=NOCC(Cc3ccc(C)cc3C)N2)c(Oc2cccc(C(F)(F)F)c2)nn1 (racemic) [I-009, rac-5-[(2,4-dimethylphenyl)methyl]-3-[6-(1-ethoxyvinyl)-3-[3-(trifluoro-methyl)phenoxy]pyridazin-4-yl]-5,6-dihydro-4H-1,2,4-oxadiazine]
inhibition at 20 ppm (Alternaria alternata): 90 to 100% | pest or weed control at 500 ppm (Septoria tritici [1]): 90 to 100% | pest or weed control at 500 ppm (Sphaerotheca fuliginea): 90 to 100% | pest or weed control at 500 ppm (Botrytis cinerea): 90 to 100% | inhibition at 20 ppm (Septoria tritici [2]): 90 to 100% | pest or weed control at 500 ppm (Pyrenophora teres): 90 to 100% | pest or weed control at 500 ppm [3]: 90 to 100%

FC(F)(F)c1cccc(Oc2nnc(Cl)cc2C2=NOCC(Cc3ccc(Br)cc3Cl)N2)c1 (racemic) [I-016, rac-5-[(4-bromo-2-chloro-phenyl)methyl]-3-[6-chloro-3-[3-(trifluoromethyl)phenoxy]pyridazin-4-yl]-5,6-dihydro-4H-1,2,4-oxadiazine]
inhibition at 20 ppm (Alternaria alternata): 90 to 100% | pest or weed control at 500 ppm (Septoria tritici [1]): 90 to 100% | pest or weed control at 500 ppm (Sphaerotheca fuliginea): 90 to 100% | pest or weed control at 500 ppm (Botrytis cinerea): 90 to 100% | inhibition at 20 ppm (Septoria tritici [2]): 90 to 100% | pest or weed control at 500 ppm (Pyrenophora teres): 90 to 100% | pest or weed control at 500 ppm [3]: 90 to 100%

COCCOc1c(Cl)nnc(Oc2cccc(C(F)(F)F)c2)c1C1=NOCC(Cc2ccc(C)cc2C)N1 (racemic) [I-072, rac-3-[6-chloro-5-(2-methoxyethoxy)-3-[3-(trifluoro-methyl)phenoxy]pyridazin-4-yl]-5-[(2,4-dimethylphenyl)methyl]-5,6-dihydro-4H-1,2,4-oxadiazine]
inhibition at 20 ppm (Alternaria alternata): 90 to 100% | pest or weed control at 500 ppm (Septoria tritici [1]): 90 to 100% | pest or weed control at 500 ppm (Sphaerotheca fuliginea): 90 to 100% | pest or weed control at 500 ppm (Botrytis cinerea): 90 to 100% | inhibition at 20 ppm (Septoria tritici [2]): 80 to 89% | pest or weed control at 500 ppm (Pyrenophora teres): 80 to 89% | pest or weed control at 500 ppm [3]: 90 to 100%
